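Step 1: Grow cells in 96-well plates. Step 2: Expose to compound for 48 hours at 5 concentrations. Step 3: Interpolate endpoints linearly; if unreached, use highest concentration. GI50 marks 50% less growth. TGI: total growth inhibition.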
What was measured:
Assay in all cases: DTP human tumour cell line panel, 48 h
HOP-92 NSCLC = system: HOP-92 NSCLC
NCI-H522 lung = system: NCI-H522 lung
OVCAR-3 ovarian = system: OVCAR-3 ovarian
OVCAR-4 ovarian = system: OVCAR-4 ovarian
RPMI-8226 leukemia = system: RPMI-8226 leukemia
RXF 393 renal = system: RXF 393 renal
SF-295 CNS = system: SF-295 CNS
SK-MEL-28 melanoma = system: SK-MEL-28 melanoma
SK-MEL-5 melanoma = system: SK-MEL-5 melanoma
SNB-19 CNS = system: SNB-19 CNS

SMILES | TGI (HOP-92 NSCLC) | TGI (NCI-H522 lung) | TGI (OVCAR-3 ovarian) | TGI (OVCAR-4 ovarian) | TGI (RPMI-8226 leukemia) | TGI (RXF 393 renal) | TGI (SF-295 CNS) | TGI (SK-MEL-28 melanoma) | TGI (SK-MEL-5 melanoma) | TGI (SNB-19 CNS) | GI50 (HOP-92 NSCLC) | GI50 (NCI-H522 lung) | GI50 (OVCAR-3 ovarian) | GI50 (OVCAR-4 ovarian) | GI50 (RPMI-8226 leukemia) | GI50 (RXF 393 renal) | GI50 (SF-295 CNS) | GI50 (SK-MEL-28 melanoma) | GI50 (SK-MEL-5 melanoma) | GI50 (SNB-19 CNS)
CC1(C)Oc2ccccc2[N+]([O-])=C1c1ccccc1 | > 100 µM | > 100 µM | > 100 µM | > 100 µM | > 100 µM | > 100 µM | > 100 µM | > 100 µM | > 100 µM | > 100 µM | – | – | – | – | – | – | – | – | – | –
OCCCCCNc1ccnc2cc(Cl)ccc12 | > 100 µM | > 100 µM | > 100 µM | > 100 µM | > 100 µM | > 100 µM | > 100 µM | > 100 µM | > 100 µM | > 100 µM | – | – | – | – | – | – | – | – | – | –
O=C1c2ccccc2-c2c1c1ccc([N+](=O)[O-])cc1c(=O)n2CCCn1ccnc1 | 29.9 µM | 5.68 µM | 2.12 µM | 13.2 µM | 0.0653 µM | 2.43 µM | 2.29 µM | 10.8 µM | 0.104 µM | > 34.4 µM | 2.18 µM | 1.08 µM | 0.334 µM | 0.943 µM | 0.0153 µM | 0.16 µM | 0.306 µM | 0.352 µM | < 0.019 µM | 0.358 µM
Cc1ccc2c(c1)-c1oc(=O)c(-c3cc4ccccc4oc3=O)cc1C(O)O2 (centres undefined) | 40.5 µM | 48.1 µM | 42.1 µM | > 100 µM | > 100 µM | 48.2 µM | 38.2 µM | 75.2 µM | 33.2 µM | 71 µM | 17.3 µM | 19.4 µM | 22.2 µM | 36.3 µM | 35.1 µM | 12.8 µM | 16.3 µM | 30.2 µM | 19.1 µM | 22.6 µM
CN=C(N)NC | > 100 µM | > 100 µM | > 100 µM | > 100 µM | > 100 µM | > 100 µM | > 100 µM | > 100 µM | > 100 µM | > 100 µM | – | – | – | – | – | – | – | – | – | –
CCOC(=O)C(=O)C(/C(=N/N(C)C)C(=O)Nc1ccc(C)cc1C)c1nc2ccccc2[nH]c1=O (centres undefined) | > 100 µM | > 100 µM | > 100 µM | > 100 µM | > 100 µM | > 100 µM | > 100 µM | > 100 µM | > 100 µM | > 100 µM | – | – | – | – | – | – | – | – | – | –
COc1cc2ccc3c4cc(OC)c(OC(C)C)cc4c[n+](C)c3c2cc1OC | > 100 µM | 70.1 µM | > 100 µM | > 100 µM | > 100 µM | > 100 µM | > 100 µM | > 100 µM | > 100 µM | > 100 µM | – | – | – | – | – | – | – | – | – | –
CCN(CC)c1ccc(/C=N/NC(=O)c2ccccc2Nc2ccnc(C(F)(F)F)c2)c(O)c1 | > 100 µM | 3.55 µM | > 100 µM | > 100 µM | 0.601 µM | > 24.6 µM | 6.27 µM | > 100 µM | 0.723 µM | > 100 µM | 0.428 µM | 0.287 µM | 0.0845 µM | 0.0856 µM | 0.0417 µM | 0.226 µM | 0.184 µM | 0.243 µM | 0.143 µM | 0.363 µM
C#CCN(Cc1nc2cc(C(F)(F)F)ccc2nc1-c1ccccc1)c1ccc(F)cc1 | 86.8 µM | > 100 µM | > 100 µM | > 100 µM | 68.7 µM | > 100 µM | > 100 µM | > 100 µM | 33.3 µM | > 100 µM | 24 µM | 22.4 µM | 29.8 µM | 33.4 µM | 23.3 µM | 41 µM | 51.4 µM | 44.2 µM | 16.8 µM | 34.9 µM
CN1CCN(Cc2ccc(NC(=O)c3cccc(C#Cc4c(N)ncc5ccc(F)cc45)c3)cc2C(F)(F)F)CC1 | 1.3 µM | 1.53 µM | 1.8 µM | 1.77 µM | 2.59 µM | 1.4 µM | 1.78 µM | 1.53 µM | 1.68 µM | 1.65 µM | 0.349 µM | 0.756 µM | 0.853 µM | 0.511 µM | 1.03 µM | 0.697 µM | 0.917 µM | 0.79 µM | 0.896 µM | 0.916 µM
C[C@H](C(O)CC(=O)C(C)(C)O)[C@H]1CC[C@@]2(C)[C@@H]3CC[C@H]4C(C)(C)[C@@H](OC5OC(COC6OC(CO)C(O)C(O)C6O)C(O)C(O)C5O)CC[C@]4(C)C3=CC[C@]12C (some centres undefined) | > 100 µM | > 100 µM | > 100 µM | > 100 µM | > 100 µM | > 100 µM | > 100 µM | > 100 µM | > 100 µM | > 100 µM | – | – | – | – | – | – | – | – | – | –
COC(=O)c1ccc(/C=C/S(=O)(=O)c2ccccc2)cc1 | > 100 µM | > 100 µM | > 100 µM | > 100 µM | > 100 µM | > 100 µM | > 100 µM | > 100 µM | > 100 µM | > 100 µM | – | – | – | – | – | – | – | – | – | –
N#Cc1ccc(NC(=O)Nc2nc3ccc(OC(F)(F)F)cc3s2)cc1 | – | 3.09 µM | 14.3 µM | 44 µM | 13.3 µM | 7.39 µM | 4.22 µM | 12.3 µM | 2.54 µM | 13.9 µM | 0.324 µM | 0.427 µM | 0.577 µM | 1.64 µM | 1 µM | 1.87 µM | 1.18 µM | 2.31 µM | 1.15 µM | 1.5 µM
COC1C(O)CC(OC2CC(OC3CC(O[C@@H]4C(=O)c5c(cc6cc(OC7CC(OC8CC(O)C(O)C(C)O8)C(O)C(C)O7)c(C)c(O)c6c5O)CC4[C@H](OC)[C@@H](O)C(C)=O)OC(C)C3O)OC(C)C2O)OC1C (some centres undefined) | > 33.3 µM | 0.0648 µM | 0.597 µM | > 23.9 µM | > 33.3 µM | 0.364 µM | > 33.3 µM | 0.396 µM | 0.0392 µM | > 33.3 µM | 0.032 µM | 0.016 µM | 0.0166 µM | < 0.0282 µM | 0.014 µM | 0.0152 µM | 0.00752 µM | 0.014 µM | 0.00993 µM | 0.0099 µM
Cn1cc2ccccc2c1-c1nc(F)nc(Nc2ccc(N)cc2)n1 | 55.6 µM | 28.9 µM | 48.3 µM | 64.3 µM | 76.5 µM | 45 µM | 50.4 µM | 30.6 µM | 25 µM | 95.5 µM | – | – | – | – | – | – | – | – | – | –
Cc1ccccc1C[P+](c1ccccc1)(c1ccccc1)c1ccccc1 | 3.77 µM | 5.73 µM | > 100 µM | 9.39 µM | 5.4 µM | 37.1 µM | > 100 µM | 44 µM | 1.58 µM | > 100 µM | 0.433 µM | 0.78 µM | 1 µM | 0.64 µM | 0.39 µM | 4.5 µM | 2.34 µM | 2.1 µM | 0.375 µM | 2.07 µM
CN1CCN(c2ccc(-c3cccc(CN4CCOCC4)c3)cc2NC(=O)c2c[nH]c(=O)cc2C(F)(F)F)CC1 | > 100 µM | 39.5 µM | > 100 µM | > 100 µM | > 100 µM | > 100 µM | > 100 µM | > 100 µM | 28.3 µM | > 100 µM | 10.7 µM | 16.7 µM | 31.7 µM | 55.9 µM | 38.2 µM | 23.1 µM | 33.1 µM | 37.1 µM | 14.2 µM | 94.7 µM
COc1ccccc1N1CCN(CCCOc2ccc(C(=O)/C=C3/C(=O)Nc4ccccc43)cc2)CC1 | 22.2 µM | 34.4 µM | 42.3 µM | 51.2 µM | 28.6 µM | 27.5 µM | 32.4 µM | 33.4 µM | 18.4 µM | > 100 µM | 2.59 µM | 11.9 µM | 7.37 µM | 6.6 µM | 2.6 µM | 11.2 µM | 12.5 µM | 14.6 µM | 6.9 µM | 40.6 µM
Cc1ccc(-n2c3c(c4c(CN)c(O)ccc42)CCc2ccccc2C3=O)cc1 | 8.11 µM | 23.6 µM | 22.3 µM | 46 µM | 23.1 µM | 36.7 µM | 22.5 µM | 69.4 µM | 3.01 µM | 38.4 µM | 2.31 µM | 9.3 µM | 10.2 µM | 20.8 µM | 4.31 µM | 17 µM | 10.2 µM | 23.4 µM | 1.61 µM | 19.9 µM
C[C@@H]1OC(=O)NN=C1c1ccc(-c2ccc(F)cc2)c(C(F)(F)F)c1 | 25.9 µM | 14.5 µM | 20.3 µM | 20.6 µM | 51.2 µM | 7.62 µM | 19.2 µM | 22.6 µM | 9.01 µM | 23.3 µM | 11 µM | 2.72 µM | 6.01 µM | 6.36 µM | 5.78 µM | 1.58 µM | 5.49 µM | 10.5 µM | 2.28 µM | 11 µM
CCN(CC)CCOc1ccc(Cc2ccccc2)cc1 | 51.1 µM | > 100 µM | > 100 µM | > 100 µM | 76.1 µM | 88.8 µM | 31.4 µM | > 100 µM | 28.5 µM | > 100 µM | 5.61 µM | 18.4 µM | 26.9 µM | 33.5 µM | 20.7 µM | 24.8 µM | 13.2 µM | 38.5 µM | 15.1 µM | 68.7 µM

From PubChem BioAssay (NCI)
